Reference: ChEMBL document CHEMBL1201862, “PubChem BioAssay data set” (2004)
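Cultured in 96-well plates, cells were exposed to test compound for 48 hours across five concentrations. GI50 is the concentration that inhibits growth by half.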 Calls of active or inactive are those of the source. Rule as the data show it: active = GI50 up to about 1.1 µM and inactive = higher.

What was measured:
Assay in all cases: NCI tumour cell line growth inhibition, 48 h
KM-20L2 = system: KM-20L2
LXFL 529 = system: LXFL 529
RXF 631 = system: RXF 631
SNB-78 = system: SNB-78
HOP-18 = system: HOP-18
DMS-273 = system: DMS-273
DLD-1 = system: DLD-1
XF498 = system: XF498
DMS-114 = system: DMS-114

Compound	GI50 (KM-20L2)	GI50 (LXFL 529)	GI50 (RXF 631)	GI50 (SNB-78)	GI50 (HOP-18)	GI50 (DMS-273)	GI50 (DLD-1)	GI50 (XF498)	GI50 (DMS-114)
C[n+]1c2ccccc2c(CNC(CS)C(=O)O)c2ccccc21 (stereo not given)	20.4 µM (inactive)	32.4 µM (inactive)	24.9 µM (inactive)	34.3 µM (inactive)	49.1 µM (inactive)	18.5 µM (inactive)	24.6 µM (inactive)	24.3 µM (inactive)	–
[C-]#[N+][C@@H]1C2[C@H](CC[C@@]1(C)O)C(=C)CC[C@@H]2[C@@]1(C)CC[C@H](Cl)C(C)(C)O1 (stereo not given in full)	6.68 µM (inactive)	3.57 µM (inactive)	6.62 µM (inactive)	–	2.71 µM (inactive)	–	2.88 µM (inactive)	4.71 µM (inactive)	1.5 µM (inactive)
CC1CC(=O)Nc2ccccc2N1C(=O)CN1CCC(CCCCN(C)C)CC1 (stereo not given)	> 100 µM (inactive)	> 100 µM (inactive)	> 100 µM (inactive)	> 100 µM (inactive)	> 100 µM (inactive)	> 100 µM (inactive)	> 100 µM (inactive)	–	> 100 µM (inactive)
CC1=C(C(=O)Nc2ccccc2C)C(c2ccc(C3C(C(=O)Nc4ccccc4C)=C(C)NC(C)=C3C(=O)Nc3ccccc3C)cc2)C(C(=O)Nc2ccccc2C)=C(C)N1	3.74 µM (inactive)	2.84 µM (inactive)	12.8 µM (inactive)	4.16 µM (inactive)	–	3.16 µM (inactive)	2.27 µM (inactive)	15.8 µM (inactive)	3.75 µM (inactive)
CC1(C)C2CCC13CS(=O)(=O)N1O[C@]13C(=O)O2 (stereo not given in full)	> 100 µM (inactive)	> 100 µM (inactive)	> 100 µM (inactive)	> 100 µM (inactive)	> 100 µM (inactive)	–	> 100 µM (inactive)	–	> 100 µM (inactive)
COC(=O)CCC(NC(=S)N/N=C(\C)c1cnccn1)C(=O)OC (stereo not given)	38.6 µM (inactive)	57.7 µM (inactive)	73.5 µM (inactive)	> 100 µM (inactive)	56.1 µM (inactive)	–	48 µM (inactive)	> 100 µM (inactive)	22.1 µM (inactive)
COc1ccc2nc3cc(Cl)ccc3c(NC(C)CCCN(CCCl)CCCl)c2c1 (stereo not given)	0.356 µM (active)	0.439 µM (active)	–	0.622 µM (active)	–	0.109 µM (active)	0.524 µM (active)	0.333 µM (active)	0.733 µM (active)
CC(C)(C)c1ccnc(/N=C2\N/C(=N\c3cc(C(C)(C)C)ccn3)c3ccccc32)c1	13.9 µM (inactive)	41.9 µM (inactive)	–	19.9 µM (inactive)	18.3 µM (inactive)	> 10 µM (inactive)	21.9 µM (inactive)	15.5 µM (inactive)	–
NC(=O)C(=O)Cc1nc2ccccc2s1	> 100 µM (inactive)	> 100 µM (inactive)	–	> 100 µM (inactive)	> 100 µM (inactive)	–	–	> 100 µM (inactive)	> 100 µM (inactive)
COC(=O)C1(C)NCCc2c1[nH]c1ccccc21 (stereo not given)	> 100 µM (inactive)	> 100 µM (inactive)	–	–	–	–	> 100 µM (inactive)	–	> 100 µM (inactive)
COc1ccc(C(=O)C(C(=O)CC(=O)Nc2cccc(C(F)(F)F)c2)c2ccc(OC)cc2)cc1 (stereo not given)	> 100 µM (inactive)	> 100 µM (inactive)	> 100 µM (inactive)	> 100 µM (inactive)	–	> 100 µM (inactive)	> 100 µM (inactive)	> 100 µM (inactive)	> 100 µM (inactive)
CCC12C=C(C(=O)OC)N3c4ccccc4C4CCN(CCC1)C2C43 (stereo not given)	19.1 µM (inactive)	87.1 µM (inactive)	–	> 100 µM (inactive)	> 100 µM (inactive)	59.6 µM (inactive)	66.7 µM (inactive)	–	63 µM (inactive)
C[S+]=c1sc2ccccc2s1	> 100 µM (inactive)	> 100 µM (inactive)	> 100 µM (inactive)	–	> 100 µM (inactive)	> 100 µM (inactive)	> 100 µM (inactive)	–	> 100 µM (inactive)
O=C(Nc1ccccc1C(=O)O)C(=O)C(C(=O)c1ccccc1-c1ccccc1)C1OC(=O)c2ccccc21 (stereo not given)	22 µM (inactive)	14.7 µM (inactive)	–	> 100 µM (inactive)	12.6 µM (inactive)	26.5 µM (inactive)	23.5 µM (inactive)	10.3 µM (inactive)	–
CCc1ccccc1N1C(=O)C(=O)C(c2nc3ccccc3s2)C(=O)C1=O	> 100 µM (inactive)	75.7 µM (inactive)	44.3 µM (inactive)	> 100 µM (inactive)	> 100 µM (inactive)	–	43.2 µM (inactive)	> 100 µM (inactive)	79.3 µM (inactive)
N#CC(C#N)=c1ccc(=C2N3CCCC3CN2C23CC4CC(CC(C4)C2)C3)cc1 (stereo not given)	> 100 µM (inactive)	> 100 µM (inactive)	–	> 100 µM (inactive)	> 100 µM (inactive)	> 100 µM (inactive)	> 100 µM (inactive)	–	> 100 µM (inactive)
C[C@]12CCC(=O)C(OC(=O)c3ccc([N+](=O)[O-])cc3)=C1CCC2=O	> 100 µM (inactive)	> 100 µM (inactive)	–	> 100 µM (inactive)	> 100 µM (inactive)	> 100 µM (inactive)	> 100 µM (inactive)	–	> 100 µM (inactive)
C#CC1(O)CCC2C3CCc4cc(Oc5nc(F)nc(-c6c7ccccc7c7n6CCS7)n5)ccc4C3CC[C@@]21C (stereo not given in full)	29.2 µM (inactive)	25.1 µM (inactive)	–	–	–	27.2 µM (inactive)	39.8 µM (inactive)	37.7 µM (inactive)	11.2 µM (inactive)
Cc1ccc(S(=O)(=O)N/N=C2\C(=O)C3CC2C(Cl)C3Cl)cc1 (stereo not given)	> 100 µM (inactive)	> 100 µM (inactive)	> 100 µM (inactive)	–	> 100 µM (inactive)	> 100 µM (inactive)	> 100 µM (inactive)	–	> 100 µM (inactive)
COC(=O)C1CC2CC(=NNC(N)=O)CC2C1 (stereo not given)	–	> 100 µM (inactive)	–	> 100 µM (inactive)	–	> 100 µM (inactive)	> 100 µM (inactive)	> 100 µM (inactive)	> 100 µM (inactive)
